The source of these data is patent EP2571872B1, “COMPOUNDS” (Treherne, Johnathan Mark, priority 2010, dated 2011).

One assay has as its system SH SY5Y cells. The experiment in a line: Cell viability assay for amyloid toxicity using MTT reduction. It counts as cell-based. As to conditions: protection of SH SY5Y cells from a toxic insult of 10µM Aβ(1-42), MTT reduction as measure of cell viability, 24 h incubation. The protocol: Aβ(1-42) was prepared for amyloid aggregation and toxicity assays by dissolving Aβ(1-42) HCl salt in hexafluoroisopropanol (HFIP), with brief sonication and vortexing. This solution of the Aβ(1-42) peptide in HFIP was stored at 4°C @ 2mM. When required, an aliquot of this stock solution was freeze-dried and dissolved in DMSO to 200 times the required final assay concentration (e.g. 2mM for a final assay concentration of 10 µM).
A 20mM stock solution of each test compound was prepared in DMSO, and aliquots of these solutions were used to prepare further stock solutions of each test compound in DMSO, ranging in concentration from 3µM up to 10mM. These stock solutions were prepared for use as and when required and stored at -20°C (maximum of 3 freeze-thaw cycles). The 20mM parent stock solutions were stored frozen at -20 °C.
The activity of compounds in protecting SH SY5Y cells from a toxic insult of 10µM Aβ(1-42) was assessed by using inhibition of MTT reduction as a measure of cell viability. An aliquot (3µl) of test compound [various concentrations] in DMSO is added to 294 µl of Opti-Mem (containing 2% FBS, 1% Pen/Strep, 1% L-Gln) {daughter plate}. The well is mixed thoroughly. Then an aliquot (3 µl) of Aβ(1-42) [2mM] is added to the daughter plate wells and again mixed thoroughly. 50 µl is then aspirated and dispensed into wells containing 50 µl media + SH SY5Ycells (cells are also plated in Opti-Mem, at ∼ 30,000 cells/well/50 µl). […]
Cell plates are incubated for 24 h and then the MTT assay (Shearman, 1999), is performed. […] The plate was shaken and the absorbance was recorded at both 570 nm and 650 nm. ΔA values were calculated by subtracting absorbance at 650 nm from absorbance at 570 nm, to reduce non-specific background absorbance. ΔA values from equivalent experiments were averaged and % cell viability was determined as follows: % cell viability = ([ΔA(sample)-ΔA(deal cell control)] x 100%)/([ΔA(live cell control)-ΔA(dead cell control)]) [formula] • Live cell controls: 1% DMSO in Opti-Mem • Dead cell controls: 0.1% Triton X-100 added to cells […]
For orientation: Tetrazolium assays rely on reduction of a dye to a coloured formazan, in cell work by metabolically active cells.

Assay [1] relates to rat hippocampal brain slices. The experiment in a line: Long-term potentiation (LTP) in hippocampal brain slices, Aβ(1-42)-induced depression of LTP. As to conditions: compound at 3µM, Schaffer collateral stimulation. The protocol:
Long-term potentiation (LTP) is a natural, prolonged electrophysiological response associated with the neurological processes of learning and short-term memory, which are affected in Alzheimer's disease. […] LTP was measured using stimulation of Schaffer collaterals in rat hippocampal brain slices, as described below.
20µL of 5mM Example 1 in DMSO was added to the stock Aβ(1-42) (1mL) and agitated at 37°C for 24hr. On the experimental day the mixture is diluted to 33mL in aCSF (32mL) immediately prior to use. The final concentration of Example 1 was 3µM. The final concentration of Aβ(1-42) was 1µM and the final concentration of DMSO was 0.06% […]
Schaffer collaterals were stimulated (3-22V, 0.1ms pulse width, 0.03Hz) with a concentric bipolar electrode and the evoked extracellular field excitatory postsynaptic potentials (fEPSPs) were recorded via an Axoclamp 2A amplifier from the stratum radiatum of the CA1 region of the hippocampus with a glass capillary microelectrode filled with 4M NaCl (resistance 2-4 MΩ). […] A 10 minute stable baseline period (control) was recorded followed by administration of test compound 10 minutes prior to high frequency stimulation (1sec 100Hz train) applied three times at 10 minute intervals with an 80 minute wash of test compound after the final high frequency stimulation protocol. […]

On to `Fc1ccc2c(c1)N(c1ncc(Oc3cccc(N4CCOCC4)c3)cn1)CCO2` [Example 2, 6-Fluoro-4-[5-(3-morpholinophenoxy)pyrimidin-2-yl]-3,4-dihydro-2H-benzo[1,4]oxazine], for which, in the assay on SH SY5Y cells (Homo sapiens), the IC50 – broadly, the midpoint of a concentration-inhibition curve – was determined as 26 µM.
The molecule `Oc1cccc(Nc2ccc(Nc3cccc(O)c3)nn2)c1` [RS-0406, reference compound] showed a half-maximal inhibitory concentration (IC50) with SH SY5Y cells of 35 µM.
Take `Fc1cccc2c1OCCN2c1ncc(Oc2cccc(N3CCOCC3)c2)cn1` [Example 1, 8-Fluoro-4-[5-(3-morpholinophenoxy)pyrimidin-2-yl]-3,4-dihydro-2H-benzo[1,4]oxazine]: the “toxic effect of 1µM Aβ(1-42) on LTP” value in assay [1] is reported as “effectively blocked”. This molecule showed an IC50 in the assay on SH SY5Y cells (Homo sapiens) of 23 µM.
